Assay results taken from article PMC4642536, “Structural analysis of fungus-derived FAD glucose dehydrogenase” (Scientific Reports, 2015).

Experiments:
[1] = target: T1, AfGDH (Aspergillus flavus FAD-dependent glucose dehydrogenase, FADGDH) (Aspergillus flavus, UniProt B8MX95); experiment: X-ray crystal structure, […] Å; type: binding; conditions: co-purified cofactor, refined as reduced form; pH 6.5; also in 4YNU
T1 construct: gene F9C07_464; residues 24-593, secretion signal peptide (1-22) removed; codon-optimised synthetic gene in pET30C, E. coli Origami2 (DE3); nonglycosylated; monomer
T1 sequence (B8MX95 24-593): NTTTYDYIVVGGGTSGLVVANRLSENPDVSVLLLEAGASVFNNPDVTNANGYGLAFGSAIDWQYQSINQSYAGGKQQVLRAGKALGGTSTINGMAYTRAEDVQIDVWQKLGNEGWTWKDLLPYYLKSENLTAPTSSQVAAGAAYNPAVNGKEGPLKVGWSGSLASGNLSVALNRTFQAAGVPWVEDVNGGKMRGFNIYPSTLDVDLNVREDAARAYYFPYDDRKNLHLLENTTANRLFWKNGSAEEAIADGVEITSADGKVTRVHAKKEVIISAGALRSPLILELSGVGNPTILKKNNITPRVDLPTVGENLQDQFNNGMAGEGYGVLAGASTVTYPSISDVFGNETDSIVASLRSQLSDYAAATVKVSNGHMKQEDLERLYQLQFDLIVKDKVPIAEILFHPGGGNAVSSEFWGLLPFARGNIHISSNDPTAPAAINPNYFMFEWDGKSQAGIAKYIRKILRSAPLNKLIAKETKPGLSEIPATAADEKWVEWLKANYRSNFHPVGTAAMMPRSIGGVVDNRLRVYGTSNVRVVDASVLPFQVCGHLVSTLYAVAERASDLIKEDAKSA

[2] = target: T1, AfGDH (Aspergillus flavus FAD-dependent glucose dehydrogenase, FADGDH); experiment: PMS/DCIP reduction, absorbance at […] nm; FAD reduction spectrum; type: biochemical; conditions: 200 mM D-glucose, 0.6 mM PMS, 0.06 mM DCIP, 10 mM potassium phosphate pH 6.5, 25 °C

Structure (SMILES): Cc1cc2c(cc1C)N(C[C@H](O)[C@H](O)[C@H](O)COP(=O)(O)OP(=O)(O)OC[C@H]1O[C@@H](n3cnc4c(N)ncnc43)[C@H](O)[C@@H]1O)c1[nH]c(=O)[nH]c(=O)c1N2 [reduced FAD]
- X-ray crystal structure, 1.78 Å [1]: The bound FAD molecule was refined as a reduced FAD cofactor (FADH2)

Structure (SMILES): OC[C@H]1OC(O)[C@H](O)[C@@H](O)[C@@H]1O (stereo partly drawn) [D-glucose]
- specific activity [2]: The addition of glucose to the wild type enzyme resulted in the disappearance of the peaks
